Values after ≈ are worked out from the molar mass of the structure shown. Like-named read-outs stand apart in the source and are kept apart here.
Legend:
[1] = tested on: TNF-α, IL-1β, IL-6, iNOS and COX-2; test: Pro-inflammatory cytokine gene expression in abscess tissue, qPCR; type: in vivo, mouse; details: mRNA relative to β-actin
Description: For mice not infected with bacteria, infected mice, and mice subjected to treatment using PEP27-2 alone, ceftriaxone alone or a combination thereof after infection, the expression of inflammatory genes in the mice were measured thus to verify the efficacy of each of PEP27-2 single treatment and combination treatment with antibiotics.
Specifically, total RNA was isolated from wound tissues using Trizol reagent. From the prepared total RNA, cDNA was synthesized using a cDNA synthesis kit. qPCR was implemented using qPCR 2× premix (SYBR Green), followed by determining expression amounts of TNF-α, IL-1β, IL-6, iNOS and COX-2 among inflammatory genes. Expression levels were quantified based on β-actin, and the PCR process was conducted as followed: at 50° C. for 2 minutes and at 95° C. for 10 minutes; 95° C. for 15 seconds, 60° C. for 1 minute, 40 cycles; 95° C. for 15 seconds, 60° C. for 1 minute, 95° C. for 30 seconds, and 60° C. for 15 seconds. The gene expression was calculated after standardization to β-actin level through ΔΔCt method.

[2] = tested on: Staphylococcus aureus MW2; test: Hematoxylin and eosin staining of abscess tissue; type: in vivo, mouse; details: tissue on day 7, treated 2 hours after infection
Excerpt: Among tissues on the abscess portion and infected portion gathered in the above 13, the tissue on day 7 was fixed with 4% buffered formalin. The infection portion or abscess portion fixed with formalin was embedded in paraffin, while staining a fragment of the cross-section with hematoxylin and eosin.

[3] = tested on: Staphylococcus aureus MW2-GFP; type: in vivo, mouse; details: up to 3 days after infection with 1×10^9 CFU
Description: For real-time tracking the progress of infection with regard to the peptide that has the most excellent antimicrobial activity among the peptides prepared by the method of above 1, fluorescence (GFP)-labeled Staphylococcus aureus MW2 (Staphylococcus aureus MW2-GFP) was used. Fluorescence images were taken from the beginning of infection to 6 hours, 1 day, 2 days and 3 days by means of an FOBI fluorescence imaging system (Neo Science, Suwon, Korea), followed by analysis thereof using live image software.

S. aureus CCARM3090 = test: microbe, parasite or virus in culture; details: Staphylococcus aureus, CCARM3090, 18 h, read-out: Minimal inhibitory concentration
Description: (§1) In order to evaluate the antimicrobial activity of the peptides prepared by the method of above 1, a minimal inhibitory concentration (MIC) value as the minimum concentration of a peptide, in which cells are not divided, was measured.
(§2) Specifically, the strains shown in Table 3 below were purchased, cultured in a medium having a constitutional composition suitable for each strain to a mid-log phase, and then diluted to a concentration of 2×10^4 cells/100 μl to prepare the product on a micro-titration plate (Nunc, USA). Then, PEP27, PEP27-1, PEP27-2 or PEP27-5 peptide synthesized in the above 1 was added to each well by serial dilution ½ times, followed by incubation at 37° C. for 18 hours.
(§3) Specifically, subject strains were prepared by the method of above 2, and were treated with the antibiotics, that is, meropenem, ceftazidime, ceftriaxone or vancomycin, respectively, followed by determining MICs of the antibiotics.

S. aureus USA300 = test: microbe, parasite or virus in culture; details: Staphylococcus aureus, USA300, 18 h, read-out: Minimal inhibitory concentration
Description: as §1, §2, §3

P. aeruginosa 4891 = test: microbe, parasite or virus in culture; details: Pseudomonas aeruginosa, 4891, 18 h, read-out: Minimal inhibitory concentration
Description: as §1, §2, §3

S. aureus CCARM3089 = test: microbe, parasite or virus in culture; details: Staphylococcus aureus, CCARM3089, 18 h, read-out: Minimal inhibitory concentration
Description: as §1, §2, §3

P. aeruginosa ATCC15692 = test: microbe, parasite or virus in culture; details: Pseudomonas aeruginosa, ATCC15692, 18 h, read-out: Minimal inhibitory concentration
Description: as §1, §2, §3

S. aureus MW2 = test: microbe, parasite or virus in culture; details: Staphylococcus aureus, MW2, 18 h, read-out: Minimal inhibitory concentration
Description: as §1, §2, §3

P. aeruginosa ATCC27853 = test: microbe, parasite or virus in culture; details: Pseudomonas aeruginosa, ATCC27853, 18 h, read-out: Minimal inhibitory concentration
Description: as §1, §2, §3

S. aureus ATCC29213 = test: microbe, parasite or virus in culture; details: Staphylococcus aureus, ATCC29213, 18 h, read-out: Minimal inhibitory concentration
Description: as §1, §2, §3

S. aureus CCARM3518 = test: microbe, parasite or virus in culture; details: Staphylococcus aureus, CCARM3518, 18 h, read-out: Minimal inhibitory concentration
Description: as §1, §2, §3

S. aureus ATCC25923 = test: microbe, parasite or virus in culture; details: Staphylococcus aureus, ATCC25923, 18 h, read-out: Minimal inhibitory concentration
Description: as §1, §2, §3

P. aeruginosa 4007 = test: microbe, parasite or virus in culture; details: Pseudomonas aeruginosa, 4007, 18 h, read-out: Minimal inhibitory concentration
Description: as §1, §2, §3

[4] = tested on: Staphylococcus aureus MW2; type: in vivo, BALB/c mouse; details: for reduction of the number of bacteria in abscess tissue: 0.2 mg/kg alone, injected 2 hours after infection
Description: The efficacy of PEP27-2, which is the peptide having the most excellent antimicrobial activity among the peptides prepared by the method of above 1 was evaluated in vivo using a mouse model.
Specifically, the epidermis on the back side (dorsal side) of 6-7 week old BALB/c mouse was infected with Staphylococcus aureus MW2 having GFP gene inserted therein (S. aureus MW2-GFP, 1×10^9 CFU/10 μl PBS). After 2 hours form infection, PEP27-2 alone (0.2 mg/kg, 50 μl), ceftriaxone alone (0.2 mg/kg, 50 μl) or a combination of the peptide and the antibiotic (0.05 mg/kg PEP27-2+0.1 mg/kg ceftriaxone, 50 μl) was injected. Further, the control mice were injected with the same amount of PBS ([…]) without peptide. On 1st, 2nd, 3rd, 4th, 5th and 7th days after treatment, the shape of abscess was photographed, and surrounding tissues as well as the abscess were gathered. The abscess tissue was homogenized in 500 μl of sterile PBS using a tissue grinder. A serial diluted solution of the homogenate was spread on an agar plate and cultured for 24 hours in order to quantify the Staphylococcus aureus MW2 strain.

HaCaT cells = test: Cell absorption of peptide (fluorescence imaging); type: cell-based, human; details: 5 μM, 1 hour
Description: With regard to the synthetic peptide prepared by the method of above 1, an ability of penetrating cells was determined through a phase-contrast microscope. Specifically, human keratinocyte line (HaCaT cells) was dispensed on a 6-well plate provided with a polylysine coating cover slip (SPL Life Sciences, Gyeonggi-do, Korea) at 2×10^5 cells/well and cultured for 24 hours, and then treated with fluorescein isothiocyanate (FITC)-labeled PEP27-2 (FITC-PEP27-2) at a concentration of 5 μM, followed by incubation in a 5% CO2 incubator for 1 hour. After 1 hour, a nucleus of the cell was treated and stained with Hoechst 33342 nucleic acid dye solution (Invitrogen, Carlsbad, CA, USA; 8 μM) for 10 minutes. After washing the stained product with PBS three times, fluorescence in the cells was imaged using a phase-contrast microscope (EVOS™ FL Auto 2 Imaging System, Thermo Fisher Scientific).

Molecule | expression of inflammatory cytokines (TNF-α, IL-1β, IL-6, iNOS, COX-2) [1] | number of visible scabs formed on the skin surface and number of bacteria [2] | fluorescence signal of S. aureus MW2-GFP at the abscess [3] | MIC (S. aureus CCARM3090) | MIC (S. aureus USA300) | MIC (P. aeruginosa 4891) | MIC (S. aureus CCARM3089) | MIC (P. aeruginosa ATCC15692) | MIC (S. aureus MW2) | MIC (P. aeruginosa ATCC27853) | MIC (S. aureus ATCC29213) | MIC (S. aureus CCARM3518) | MIC (S. aureus ATCC25923) | MIC (P. aeruginosa 4007) | size of formed abscess ([4]; compared with infected group injected only with PBS, up to day 7) | reduction of the number of bacteria in abscess tissue ([4]; day 3) | reduction of the number of bacteria in abscess tissue ([4]; day 7) | cellular absorption into HaCaT cells (HaCaT cells)
CO/N=C(\C(=O)N[C@@H]1C(=O)N2C(C(=O)O)=C(CSc3nc(=O)c(=O)[nH]n3C)CS[C@H]12)c1csc(N)n1 [Ceftriaxone, ceftriaxone] | suppressed | markedly reduced | not reduced | 512 µM (≈ 284 µg/mL) | 16 µM (≈ 8.87 µg/mL) | 64 µM (≈ 35.5 µg/mL) | 512 µM (≈ 284 µg/mL) | 16 µM (≈ 8.87 µg/mL) | 32 µM (≈ 17.7 µg/mL) | 8 µM (≈ 4.44 µg/mL) | 4 µM (≈ 2.22 µg/mL) | 256 µM (≈ 142 µg/mL) | 8 µM (≈ 4.44 µg/mL) | 16 µM (≈ 8.87 µg/mL) | smaller than the experimental group in which only PBS was injected | 46.0% | 61.5% | –
GRKKRRQRRRPQ (TAT) | – | – | – | – | – | – | – | – | – | – | – | – | – | – | – | – | – | absorbed into the cytoplasm and the nucleus of HaCaT cell

Reference: patent publication US12180252B2, “Peptide derived from PEP27 peptide and uses thereof” (priority 2021, dated 2024)
